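Interpolation was linear, between the two tested concentrations surrounding the appropriate level; five concentrations were tested over 48 hours in 96-well plates. TGI: total growth inhibition.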
Tests used:
Assay in all cases: NCI tumour cell line growth inhibition, 48 h
[1] = system: A549 NSCLC
[2] = system: CAKI-1 renal
[3] = system: CCRF-CEM leukemia
[4] = system: DLD-1 colon
[5] = system: DMS 114 small cell lung
[6] = system: DMS 273 small cell lung
[7] = system: HCC-2998 colon
[8] = system: HCT-116 colon
[9] = system: HCT-15 colon
[10] = system: HL-60(TB) leukemia
[11] = system: HOP-18 NSCLC
[12] = system: HOP-62 NSCLC
[13] = system: HOP-92 NSCLC
[14] = system: HT29 colon
[15] = system: IGROV1 ovarian
[16] = system: KM12 colon
[17] = system: KM20L2 colon
[18] = system: LOX IMVI melanoma
[19] = system: MALME-3M melanoma
[20] = system: MCF7 breast
[21] = system: NCI-H226 lung
[22] = system: NCI-H460 lung
[23] = system: NCI/ADR-RES ovarian
[24] = system: OVCAR-3 ovarian
[25] = system: OVCAR-4 ovarian
[26] = system: OVCAR-8 ovarian
[27] = system: RPMI-8226 leukemia
[28] = system: RXF 393 renal
[29] = system: SF-268 CNS
[30] = system: SF-295 CNS
[31] = system: SF-539 CNS
[32] = system: SK-MEL-2 melanoma
[33] = system: SK-MEL-28 melanoma
[34] = system: SK-MEL-5 melanoma
[35] = system: SK-OV-3 ovarian
[36] = system: SN12C renal
[37] = system: SN12K1 renal
[38] = system: SNB-19 CNS
[39] = system: SNB-75 CNS
[40] = system: SNB-78 CNS
[41] = system: SW-620 colon
[42] = system: U251 CNS
[43] = system: UACC-62 melanoma
[44] = system: UO-31 renal
[45] = system: XF 498 CNS
[46] = system: 786-0 renal
[47] = system: A498 renal
[48] = system: ACHN renal
[49] = system: COLO 205 colon
[50] = system: EKVX NSCLC
[51] = system: K-562 leukemia
[52] = system: LXFL 529 NSCLC
[53] = system: M14 melanoma
[54] = system: M19-MEL melanoma
[55] = system: MOLT-4 leukemia
[56] = system: NCI-H23 lung
[57] = system: NCI-H522 lung
[58] = system: OVCAR-5 ovarian
[59] = system: RXF-631 renal
[60] = system: SR leukemia
[61] = system: TK-10 renal
[62] = system: UACC-257 melanoma

O=c1cc(O)ccn1C1C=C(CO)C(O)C1O (centres undefined)
TGI [1]: > 625 µM
TGI [2]: > 625 µM
TGI [3]: > 625 µM
TGI [4]: > 625 µM
TGI [5]: > 625 µM
TGI [6]: > 625 µM
TGI [7]: > 625 µM
TGI [8]: > 625 µM
TGI [9]: > 625 µM
TGI [10]: > 625 µM
TGI [11]: > 625 µM
TGI [12]: > 625 µM
TGI [13]: > 625 µM
TGI [14]: > 625 µM
TGI [15]: > 625 µM
TGI [16]: > 625 µM
TGI [17]: > 625 µM
TGI [18]: > 625 µM
TGI [19]: > 625 µM
TGI [20]: > 625 µM
TGI [21]: > 625 µM
TGI [22]: > 625 µM
TGI [23]: > 625 µM
TGI [24]: > 625 µM
TGI [25]: > 625 µM
TGI [26]: > 625 µM
TGI [27]: > 625 µM
TGI [28]: > 625 µM
TGI [29]: > 625 µM
TGI [30]: > 625 µM
TGI [31]: > 625 µM
TGI [32]: > 625 µM
TGI [33]: > 625 µM
TGI [34]: > 625 µM
TGI [35]: > 625 µM
TGI [36]: > 625 µM
TGI [37]: > 625 µM
TGI [38]: > 625 µM
TGI [39]: > 625 µM
TGI [40]: > 625 µM
TGI [41]: > 625 µM
TGI [42]: > 625 µM
TGI [43]: > 625 µM
TGI [44]: > 625 µM
TGI [45]: < 0.0625 µM

O=C(O)CCC(=O)N1C/C(=C\c2ccccc2)C(=O)/C(=C/c2ccccc2)C1
TGI [46]: 5.75 µM
TGI [47]: 27.3 µM
TGI [1]: 34.5 µM
TGI [48]: 4 µM
TGI [2]: 14.9 µM
TGI [3]: 9.93 µM
TGI [49]: 11.3 µM
TGI [4]: 5.06 µM
TGI [5]: 4.73 µM
TGI [6]: 4.97 µM
TGI [50]: 15.9 µM
TGI [7]: 4.53 µM
TGI [8]: 3.16 µM
TGI [9]: 4.8 µM
TGI [10]: 4.59 µM
TGI [11]: 16.1 µM
TGI [12]: 31.3 µM
TGI [13]: 30.8 µM
TGI [14]: 4.65 µM
TGI [15]: 12.7 µM
TGI [51]: > 24.6 µM
TGI [16]: 3.34 µM
TGI [17]: 9.89 µM
TGI [18]: 3.36 µM
TGI [52]: 7.17 µM
TGI [53]: 5.39 µM
TGI [54]: 3.47 µM
TGI [19]: 5.52 µM
TGI [55]: 8.22 µM
TGI [21]: 34.3 µM
TGI [56]: 12.7 µM
TGI [22]: 25.2 µM
TGI [57]: 3.38 µM
TGI [24]: 5.93 µM
TGI [25]: 4.86 µM
TGI [58]: 28.3 µM
TGI [26]: 8.24 µM
TGI [27]: 19.9 µM
TGI [28]: 12.7 µM
TGI [59]: 11.2 µM
TGI [29]: 5.5 µM
TGI [30]: 6.03 µM
TGI [31]: 3.85 µM
TGI [32]: 4 µM
TGI [33]: 3.55 µM
TGI [34]: 6.9 µM
TGI [35]: 25.3 µM
TGI [36]: 3.52 µM
TGI [38]: 13.8 µM
TGI [39]: 19.1 µM
TGI [40]: 31.4 µM
TGI [60]: 3.96 µM
TGI [41]: 3.77 µM
TGI [61]: 21.2 µM
TGI [42]: 3.29 µM
TGI [62]: 6.53 µM
TGI [43]: 2.63 µM
TGI [44]: 33 µM
TGI [45]: 6.56 µM
